According to PubChem BioAssay (NCI):
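Protocol summary: plate cells (96-well), add compound at 5 concentrations, incubate 48 h, interpolate endpoints linearly. GI50 is the concentration that inhibits growth by half. TGI denotes the concentration required for complete inhibition of growth.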

Key:
Test in all cases: NCI-60 cell line screen, 48 h
SK-MEL-2 melanoma = test system: SK-MEL-2 melanoma
OVCAR-5 ovarian = test system: OVCAR-5 ovarian
NCI-H23 lung = test system: NCI-H23 lung
SNB-19 CNS = test system: SNB-19 CNS
OVCAR-4 ovarian = test system: OVCAR-4 ovarian
K-562 leukemia = test system: K-562 leukemia
SF-268 CNS = test system: SF-268 CNS
T-47D breast = test system: T-47D breast
TK-10 renal = test system: TK-10 renal
PC-3 prostate = test system: PC-3 prostate
HOP-92 NSCLC = test system: HOP-92 NSCLC
HCT-15 colon = test system: HCT-15 colon
M14 melanoma = test system: M14 melanoma
ACHN renal = test system: ACHN renal
SN12C renal = test system: SN12C renal
U251 CNS = test system: U251 CNS
IGROV1 ovarian = test system: IGROV1 ovarian
A549 NSCLC = test system: A549 NSCLC
HT29 colon = test system: HT29 colon
HCC-2998 colon = test system: HCC-2998 colon
SNB-75 CNS = test system: SNB-75 CNS
SR leukemia = test system: SR leukemia
SK-MEL-28 melanoma = test system: SK-MEL-28 melanoma
NCI-H460 lung = test system: NCI-H460 lung
KM12 colon = test system: KM12 colon
786-0 renal = test system: 786-0 renal
HCT-116 colon = test system: HCT-116 colon
A498 renal = test system: A498 renal
SF-295 CNS = test system: SF-295 CNS
NCI-H226 lung = test system: NCI-H226 lung
RPMI-8226 leukemia = test system: RPMI-8226 leukemia
UACC-257 melanoma = test system: UACC-257 melanoma
LOX IMVI melanoma = test system: LOX IMVI melanoma
HS 578T breast = test system: HS 578T breast
NCI/ADR-RES ovarian = test system: NCI/ADR-RES ovarian
SK-MEL-5 melanoma = test system: SK-MEL-5 melanoma
SW-620 colon = test system: SW-620 colon
NCI-H522 lung = test system: NCI-H522 lung
CCRF-CEM leukemia = test system: CCRF-CEM leukemia
HL-60(TB) leukemia = test system: HL-60(TB) leukemia
MDA-MB-435 = test system: MDA-MB-435
DU-145 prostate = test system: DU-145 prostate
MDA-MB-231 breast = test system: MDA-MB-231 breast
UO-31 renal = test system: UO-31 renal
OVCAR-3 ovarian = test system: OVCAR-3 ovarian
OVCAR-8 ovarian = test system: OVCAR-8 ovarian
UACC-62 melanoma = test system: UACC-62 melanoma
EKVX NSCLC = test system: EKVX NSCLC
MALME-3M melanoma = test system: MALME-3M melanoma
MCF7 breast = test system: MCF7 breast
BT-549 breast = test system: BT-549 breast
COLO 205 colon = test system: COLO 205 colon
CAKI-1 renal = test system: CAKI-1 renal
SK-OV-3 ovarian = test system: SK-OV-3 ovarian
MOLT-4 leukemia = test system: MOLT-4 leukemia
HOP-62 NSCLC = test system: HOP-62 NSCLC
SF-539 CNS = test system: SF-539 CNS

`COc1ccc(CC(C)=C(c2ccc(OCCN3CCCC3)cc2)c2ccc(OCCN3CCCC3)cc2)cc1` was tested, and the GI50 (SK-MEL-2 melanoma) was 3.68 µM, the TGI (SK-MEL-2 melanoma) was 6.97 µM and the GI50 (OVCAR-5 ovarian) was 3.49 µM. For the same compound, the TGI (OVCAR-5 ovarian) was 6.68 µM, the GI50 (NCI-H23 lung) was 3.49 µM and the TGI (NCI-H23 lung) was 6.76 µM. The GI50 (SNB-19 CNS) was 3.93 µM, the TGI (SNB-19 CNS) was 7.32 µM and the GI50 (OVCAR-4 ovarian) was 3.39 µM. The TGI (OVCAR-4 ovarian) was 6.9 µM, the GI50 (K-562 leukemia) was 0.497 µM and the TGI (K-562 leukemia) was 1.28 µM. The GI50 (SF-268 CNS) was 3.24 µM, the TGI (SF-268 CNS) was 6.7 µM and the GI50 (T-47D breast) was 3.13 µM. It also gave a TGI (T-47D breast) of 7.61 µM, a GI50 (TK-10 renal) of 3.66 µM and a TGI (TK-10 renal) of 7.28 µM. For the same compound, the GI50 (PC-3 prostate) was 2.99 µM, the TGI (PC-3 prostate) was 7.25 µM and the GI50 (HOP-92 NSCLC) was 0.773 µM. For the same compound, the TGI (HOP-92 NSCLC) was 3.92 µM, the GI50 (HCT-15 colon) was 1.28 µM and the TGI (HCT-15 colon) was 4.36 µM. The GI50 (M14 melanoma) was 0.722 µM, the TGI (M14 melanoma) was 2.5 µM and the GI50 (ACHN renal) was 3.36 µM. It also gave a TGI (ACHN renal) of 6.48 µM, a GI50 (SN12C renal) of 3.49 µM and a TGI (SN12C renal) of 6.74 µM. The GI50 (U251 CNS) was 1.81 µM, the TGI (U251 CNS) was 5.47 µM and the GI50 (IGROV1 ovarian) was 3.78 µM. For the same compound, the TGI (IGROV1 ovarian) was 7.16 µM, the GI50 (A549 NSCLC) was 3.1 µM and the TGI (A549 NSCLC) was 7.39 µM. It also gave a GI50 (HT29 colon) of 0.84 µM, a TGI (HT29 colon) of 3.31 µM and a GI50 (HCC-2998 colon) of 2.46 µM. It also gave a TGI (HCC-2998 colon) of 5.38 µM, a GI50 (SNB-75 CNS) of 2.69 µM and a TGI (SNB-75 CNS) of 5.74 µM. The GI50 (SR leukemia) was 0.483 µM, the TGI (SR leukemia) was 1.3 µM and the GI50 (SK-MEL-28 melanoma) was 3.6 µM. The TGI (SK-MEL-28 melanoma) was 6.83 µM, the GI50 (NCI-H460 lung) was 3.15 µM and the TGI (NCI-H460 lung) was 6.45 µM. It also gave a GI50 (KM12 colon) of 3.49 µM, a TGI (KM12 colon) of 6.77 µM and a GI50 (786-0 renal) of 2.78 µM. For the same compound, the TGI (786-0 renal) was 6.05 µM, the GI50 (HCT-116 colon) was 1.76 µM and the TGI (HCT-116 colon) was 5.25 µM. The GI50 (A498 renal) was 3.01 µM, the TGI (A498 renal) was 6.28 µM and the GI50 (SF-295 CNS) was 4 µM. It also gave a TGI (SF-295 CNS) of 7.38 µM, a GI50 (NCI-H226 lung) of 3.2 µM and a TGI (NCI-H226 lung) of 6.63 µM. It also gave a GI50 (RPMI-8226 leukemia) of 2.12 µM, a TGI (RPMI-8226 leukemia) of 9.37 µM and a GI50 (UACC-257 melanoma) of 3.95 µM. For the same compound, the TGI (UACC-257 melanoma) was 7.59 µM, the GI50 (LOX IMVI melanoma) was 1.07 µM and the TGI (LOX IMVI melanoma) was 3.94 µM. It also gave a GI50 (HS 578T breast) of 2.99 µM, a TGI (HS 578T breast) of 7.17 µM and a GI50 (NCI/ADR-RES ovarian) of 3.7 µM. The TGI (NCI/ADR-RES ovarian) was 7.08 µM, the GI50 (SK-MEL-5 melanoma) was 3.81 µM and the TGI (SK-MEL-5 melanoma) was 7.05 µM. It also gave a GI50 (SW-620 colon) of 2.23 µM, a TGI (SW-620 colon) of 5.25 µM and a GI50 (NCI-H522 lung) of 3.63 µM. For the same compound, the TGI (NCI-H522 lung) was 7.6 µM, the GI50 (CCRF-CEM leukemia) was 3.97 µM and the TGI (CCRF-CEM leukemia) was 11.9 µM. For the same compound, the GI50 (HL-60(TB) leukemia) was 4.14 µM, the TGI (HL-60(TB) leukemia) was 8.53 µM and the GI50 (MDA-MB-435) was 0.721 µM. The TGI (MDA-MB-435) was 2.57 µM, the GI50 (DU-145 prostate) was 3.32 µM and the TGI (DU-145 prostate) was 6.43 µM. The GI50 (MDA-MB-231 breast) was 3.25 µM, the TGI (MDA-MB-231 breast) was 6.44 µM and the GI50 (UO-31 renal) was 2.79 µM. The TGI (UO-31 renal) was 5.75 µM, the GI50 (OVCAR-3 ovarian) was 2.68 µM and the TGI (OVCAR-3 ovarian) was 5.59 µM. For the same compound, the GI50 (OVCAR-8 ovarian) was 3.64 µM, the TGI (OVCAR-8 ovarian) was 7.29 µM and the GI50 (UACC-62 melanoma) was 4.02 µM. It also gave a TGI (UACC-62 melanoma) of 7.4 µM, a GI50 (EKVX NSCLC) of 3.68 µM and a TGI (EKVX NSCLC) of 7.02 µM. The GI50 (MALME-3M melanoma) was 3.57 µM, the TGI (MALME-3M melanoma) was 6.81 µM and the GI50 (MCF7 breast) was 0.841 µM. For the same compound, the TGI (MCF7 breast) was 3.2 µM, the GI50 (BT-549 breast) was 3.04 µM and the TGI (BT-549 breast) was 6.35 µM. The GI50 (COLO 205 colon) was 0.904 µM, the TGI (COLO 205 colon) was 4.55 µM and the GI50 (CAKI-1 renal) was 4 µM. The TGI (CAKI-1 renal) was 7.31 µM, the GI50 (SK-OV-3 ovarian) was 4.19 µM and the TGI (SK-OV-3 ovarian) was 7.93 µM. The GI50 (MOLT-4 leukemia) was 2.07 µM, the TGI (MOLT-4 leukemia) was 5.96 µM and the GI50 (HOP-62 NSCLC) was 3.74 µM. For the same compound, the TGI (HOP-62 NSCLC) was 7.93 µM, the GI50 (SF-539 CNS) was 3.59 µM and the TGI (SF-539 CNS) was 6.84 µM.
